In patent US10555915B2, “Methods for treating acute acoustic trauma” (Hough Ear Institute, priority 2009, dated 2020):

Columns and labels:
AAT-induced hearing loss [1] = assay: Chinchilla AAT model, NAC intraperitoneal, ABR threshold shift; format: in vivo; conditions: FIG. 3; for threshold shift at 21 days following AAT exposure: p<0.05
Experimental: For the experiments and examples described herein, the following methods were generally employed except for those described with respect to FIG. 5. Female adult chinchilla laniger (Mouton Chinchilla Ranch, Rochester, Minn.) weighing 500-850 grams were placed, two at a time, in two small wire restraint cages on a wooden plate where the AAT was induced by a 105 dB SPL octave-band noise centered at 4 kHz for 6 hours in a sound isolation booth [Industrial Acoustics Company (IAC), New York, N.Y.]. The noise was digitally generated by a Tucker Davis Technologies (TDT, Alachua, Fla.) device and passed through a real time attenuator (TDT, RP2), filtered, amplified with a preamplifier (QSC audio power, Costa Mesa, Calif.), and transduced with a high frequency acoustic driver and an acoustic speaker (JBL 2350, Northridge, Calif.) suspended from the ceiling of the sound booth which is placed directly above the wire cages. Before noise exposure, the sound spectrum output of the system was calibrated with a sound level meter centered at an octave bandwidth of 4 kHz. A condenser microphone (B&K 2804, Norcross, Ga.) coupled to the preamplifier was placed between the two wire cages at the level of the animals' heads to monitor the noise level. During noise exposure, the noise level was continually and visually monitored using the PULSE software system [B&K Sound & Vibration Measurement (version 10.0), Norcross, Ga.] including FFT Analysis Type 7770 and CPB Analysis 7771. […]
Hearing was assessed as auditory brainstem response (ABR) which was measured at between 1 and 3 days prior to AAT and at one or more of the following time points post AAT: 1 hr, 8 hr, 24 hr 7 day and 21 days. […] ABR thresholds were recorded from subcutaneous needle electrodes placed under the skin of the head. […]

AAT-induced hearing loss [2] = assay: Chinchilla AAT model, oral treatment, ABR threshold shift; format: in vivo, chinchilla laniger
Experimental: The treatments were administered a total of five times including one dose 4 hours post-AAT, and two doses daily on days 1 and 2 post AAT.
Hearing was assessed as auditory brainstem response (ABR) which was measured at between 1 and 3 days prior to AAT and at one or more of the following time points post AAT: 1 hr, 8 hr, 24 hr 7 day and 21 days. The 21 day test point was considered the permanent threshold shift (PTS). ABR recordings were performed under light ketamine (20 mg/kg) and xylazine (1 mg/kg) anesthesia. Small supplemental doses (⅓ of initial dose) were given if needed. ABR thresholds were recorded from subcutaneous needle electrodes placed under the skin of the head. […] Auditory stimuli was generated using a computer-aided system (Intelligent Hearing Systems, Miami, Fla.) coupled to high frequency transducers. Acoustic stimuli were tone pips (5 ms duration and 1 ms Blackman rise and fall) at frequencies of 0.5, 1, 2, 4, 6, 8, and 16 kHz. All acoustic stimuli were transduced through the computer-controlled attenuator to a 3A insert earphone [Etyniotic Research (ER)-3A, Etymotic Research Inc., Elk Grove Village, Ill.] placed about 5 mm from the tympanic membrane. The insert earphone was calibrated with a coupler mounted to the sound level meter approximating its placement. The electrical responses obtained from the electrodes were amplified (×100,000), filtered (100-3,000 Hz), and digitized through an A/D converter on a signal processing board. They were averaged at a sample rate of 1024 for each level.
Hearing thresholds were tested in 10 dB descending steps until near the threshold, and then 5 dB ascending steps were taken to determine the threshold. Threshold was defined as the midpoint between the lowest level of a clear response and the next level where no response was observed. The threshold shift refers to the difference in threshold prior to and following AAT. The investigators performing the ABR measurements were blinded as to the identity of the animal groups.
Statistically significant differences in threshold shifts were tested via ANOVA (SPSS 14.0 for Windows).

Compound | threshold shift at 21 days following AAT exposure (AAT-induced hearing loss [1]; 100 mg/kg NAC i.p.) | threshold shift at 21 days following AAT exposure (AAT-induced hearing loss [1]; 200 mg/kg NAC i.p.) | threshold shift soon after treatment (AAT-induced hearing loss [1]; NAC i.p. 4 hours post AAT) | average threshold shift at each individual frequency (0.5, 1, 2, 4, 6 and 8 kHz) (AAT-induced hearing loss [2]; 300 mg/kg oral, compared to control, FIG. 2) | average threshold shift across all frequencies tested (AAT-induced hearing loss [2]; 21 days post AAT, 300 mg/kg oral, five doses from 4 hours post-AAT, compared to control animals, FIG. 1) | average threshold shift for each individual frequency tested (AAT-induced hearing loss [2]; 21 days post AAT, oral, 300 mg/kg HPN-07 alone or + 300 mg/kg NAC, vs control (10% sucrose), FIG. 4A) | combined average threshold shift from 2 kHz to 8 kHz (AAT-induced hearing loss [2]; 21 days post AAT, oral, vs control, FIG. 4B) | outer hair cell loss (AAT-induced hearing loss [2]; expected in view of ABR data, compared to the control group) | protection from hearing loss due to AAT (AAT-induced hearing loss [2]; oral administration to chinchillas exposed to AAT, summary statement)
CC(=O)N[C@@H](CS)C(=O)O [NAC, N-acetylcysteine] | significant decrease in threshold shift | significant decrease in threshold shift | mild effect on threshold shift | – | – | – | – | – | –
CC(C)(C)[N+]([O-])=Cc1ccc(S(=O)(=O)O)cc1S(=O)(=O)O [HPN-07, 2,4-disulfonyl α-phenyl tertiary butyl nitrone] | – | – | – | most pronounced effect of HPN-07 occurred at 0.5, 1, 6 and 8 kHz, while the effect was less prominent at 2 and 4 kHz | significantly decreased average threshold shift | significant reduction in threshold shift at 0.5, 1, 4 and 6 kHz | overall significant reduction in threshold shift | statistically significant reduction in outer hair cell loss | significantly protected them from hearing loss
